According to paper PMC9749936, “Synthesis and structure–activity relationship studies of N-terminal analogues of the lipopeptide antibiotics brevicidine and laterocidine” (RSC Medicinal Chemistry, 2022):
Bridge positions count the residues as written; N and C are the ends. Square brackets hold non-standard residues; d marks the D form. Peptide text beside a SMILES is read from it. * marks the point of attachment. Palmitoyl = CCCCCCCCCCCCCCCC(=O)*; Myristoyl = CCCCCCCCCCCCCC(=O)*; Lauroyl = CCCCCCCCCCCC(=O)*; Decanoyl = CCCCCCCCCC(=O)*; dOrn = NCCC[C@@H](N)C(=O)O; Orn = NCCC[C@H](N)C(=O)O; Hexanoyl = CCCCCC(=O)*; Butyryl = CCCC(=O)*

How the values were obtained:
E. coli ATCC 25922 = type: cell-based, Escherichia coli; details: ATCC 25922, 18 h
How it was run: (§1)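 Broth microdilution MIC per CLSI guidelines in MHB, with compound from DMSO stocks serially diluted in polypropylene plates.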

E. coli ATCC 25922 MCR-1 = type: cell-based, Escherichia coli; details: colistin-resistant strain carrying mcr-1; CLSI broth microdilution in MHB, 18 h at 37 °C, visual inspection; three technical replicates
K. pneumoniae ATCC 13883 = type: cell-based, Klebsiella pneumoniae; details: ATCC 13883, 18 h
How it was run: as §1

A. baumannii ATCC 17961 = type: cell-based, Acinetobacter baumannii; details: ATCC 17961, 18 h
How it was run: as §1

P. aeruginosa PAO1 = type: cell-based, Pseudomonas aeruginosa; details: PAO1, 18 h
How it was run: as §1

S. aureus USA300 = type: cell-based, Staphylococcus aureus; details: USA300, 18 h
How it was run: as §1

Sheep red blood cells = type: cell-based; details: red cells of sheep, 1 h, 64 μg mL^−1

Row | Compound | Antimicrobial activity (MIC) E. coli ATCC 25922 (E. coli ATCC 25922) | Antimicrobial activity (MIC) E. coli ATCC 25922 MCR-1 (E. coli ATCC 25922 MCR-1) | Antimicrobial activity (MIC) K. pneumoniae ATCC 13883 (K. pneumoniae ATCC 13883) | Antimicrobial activity (MIC) A. baumannii ATCC 17961 (A. baumannii ATCC 17961) | Antimicrobial activity (MIC) P. aeruginosa PAO1 (P. aeruginosa PAO1) | Antimicrobial activity (MIC) S. aureus USA300 (S. aureus USA300) | % Hemolytic activity, sheep red blood cells (Sheep red blood cells)
1 | CCCCCCCCCCCCCC(=O)N[C@H](CC(N)=O)C(=O)N[C@H](Cc1ccc(O)cc1)C(=O)N[C@H](Cc1c[nH]c2ccccc12)C(=O)N[C@H](CCCN)C(=O)N[C@@H](CCCN)C(=O)NCC(=O)N[C@H](CCCN)C(=O)N[C@@H](Cc1c[nH]c2ccccc12)C(=O)N[C@@H]1C(=O)N[C@@H]([C@@H](C)CC)C(=O)NCC(=O)N[C@@H](CO)C(=O)O[C@@H]1C [Compound 16] (Myristoyl-[dN][dY][dW][dOrn][Orn]G[dOrn]WTIGS; ester 9-C) | 16 µg/mL | 16 µg/mL | 32 µg/mL | 4 µg/mL | 32 µg/mL | >32 µg/mL | 18.0%
2 | CCCCCCCCCCCCCCCC(=O)N[C@H](CC(N)=O)C(=O)N[C@H](Cc1ccc(O)cc1)C(=O)N[C@H](Cc1c[nH]c2ccccc12)C(=O)N[C@H](CCCN)C(=O)N[C@@H](CCCN)C(=O)NCC(=O)N[C@H](CCCN)C(=O)N[C@@H](Cc1c[nH]c2ccccc12)C(=O)N[C@@H]1C(=O)N[C@@H]([C@@H](C)CC)C(=O)NCC(=O)N[C@@H](CO)C(=O)O[C@@H]1C [Compound 17] (Palmitoyl-[dN][dY][dW][dOrn][Orn]G[dOrn]WTIGS; ester 9-C) | >32 µg/mL | >32 µg/mL | >32 µg/mL | 32 µg/mL | >32 µg/mL | >32 µg/mL | 13.3%
3 | CC[C@H](C)[C@@H]1NC(=O)[C@@H](NC(=O)[C@H](Cc2c[nH]c3ccccc23)NC(=O)[C@@H](CCCN)NC(=O)CNC(=O)[C@H](CCCN)NC(=O)[C@@H](CCCN)NC(=O)[C@@H](Cc2c[nH]c3ccccc23)NC(=O)[C@@H](Cc2ccc(O)cc2)NC(=O)[C@H](N)CO)[C@@H](C)OC(=O)CNC(=O)CNC(=O)[C@H](CC(N)=O)NC1=O [Compound 18] (H-[dS][dY][dW][dOrn][Orn]G[dOrn]WTINGG; ester 9-C) | >32 µg/mL | >32 µg/mL | >32 µg/mL | >32 µg/mL | >32 µg/mL | >32 µg/mL | 0.2%
4 | CC[C@H](C)[C@@H]1NC(=O)[C@@H](NC(=O)[C@H](Cc2c[nH]c3ccccc23)NC(=O)[C@@H](CCCN)NC(=O)CNC(=O)[C@H](CCCN)NC(=O)[C@@H](CCCN)NC(=O)[C@@H](Cc2c[nH]c3ccccc23)NC(=O)[C@@H](Cc2ccc(O)cc2)NC(=O)[C@@H](CO)NC(C)=O)[C@@H](C)OC(=O)CNC(=O)CNC(=O)[C@H](CC(N)=O)NC1=O [Compound 19] (Ac-[dS][dY][dW][dOrn][Orn]G[dOrn]WTINGG; ester 9-C) | >32 µg/mL | >32 µg/mL | >32 µg/mL | >32 µg/mL | 16 µg/mL | >32 µg/mL | 0.2%
5 | CCCC(=O)N[C@H](CO)C(=O)N[C@H](Cc1ccc(O)cc1)C(=O)N[C@H](Cc1c[nH]c2ccccc12)C(=O)N[C@H](CCCN)C(=O)N[C@@H](CCCN)C(=O)NCC(=O)N[C@H](CCCN)C(=O)N[C@@H](Cc1c[nH]c2ccccc12)C(=O)N[C@@H]1C(=O)N[C@@H]([C@@H](C)CC)C(=O)N[C@@H](CC(N)=O)C(=O)NCC(=O)NCC(=O)O[C@@H]1C [Compound 20] (Butyryl-[dS][dY][dW][dOrn][Orn]G[dOrn]WTINGG; ester 9-C) | 16 µg/mL | 32 µg/mL | 32 µg/mL | >32 µg/mL | 8 µg/mL | >32 µg/mL | 0.3%
6 | CCCCCC(=O)N[C@H](CO)C(=O)N[C@H](Cc1ccc(O)cc1)C(=O)N[C@H](Cc1c[nH]c2ccccc12)C(=O)N[C@H](CCCN)C(=O)N[C@@H](CCCN)C(=O)NCC(=O)N[C@H](CCCN)C(=O)N[C@@H](Cc1c[nH]c2ccccc12)C(=O)N[C@@H]1C(=O)N[C@@H]([C@@H](C)CC)C(=O)N[C@@H](CC(N)=O)C(=O)NCC(=O)NCC(=O)O[C@@H]1C [Compound 21] (Hexanoyl-[dS][dY][dW][dOrn][Orn]G[dOrn]WTINGG; ester 9-C) | 4 µg/mL | 8 µg/mL | 8 µg/mL | 16 µg/mL | 4 µg/mL | >32 µg/mL | 0.2%
7 | CCCCCCCCCC(=O)N[C@H](CO)C(=O)N[C@H](Cc1ccc(O)cc1)C(=O)N[C@H](Cc1c[nH]c2ccccc12)C(=O)N[C@H](CCCN)C(=O)N[C@@H](CCCN)C(=O)NCC(=O)N[C@H](CCCN)C(=O)N[C@@H](Cc1c[nH]c2ccccc12)C(=O)N[C@@H]1C(=O)N[C@@H]([C@@H](C)CC)C(=O)N[C@@H](CC(N)=O)C(=O)NCC(=O)NCC(=O)O[C@@H]1C [Compound 23] (Decanoyl-[dS][dY][dW][dOrn][Orn]G[dOrn]WTINGG; ester 9-C) | 2 µg/mL | 2 µg/mL | 2 to 4 µg/mL | 2 µg/mL | 2 µg/mL | >32 µg/mL | 2.1%
8 | CCCCCCCCCCCC(=O)N[C@H](CO)C(=O)N[C@H](Cc1ccc(O)cc1)C(=O)N[C@H](Cc1c[nH]c2ccccc12)C(=O)N[C@H](CCCN)C(=O)N[C@@H](CCCN)C(=O)NCC(=O)N[C@H](CCCN)C(=O)N[C@@H](Cc1c[nH]c2ccccc12)C(=O)N[C@@H]1C(=O)N[C@@H]([C@@H](C)CC)C(=O)N[C@@H](CC(N)=O)C(=O)NCC(=O)NCC(=O)O[C@@H]1C [Compound 24] (Lauroyl-[dS][dY][dW][dOrn][Orn]G[dOrn]WTINGG; ester 9-C) | 4 µg/mL | 4 µg/mL | 8 µg/mL | 2 µg/mL | 8 µg/mL | 32 µg/mL | 21.5%
9 | CCCCCCCCCCCCCCCC(=O)N[C@H](CO)C(=O)N[C@H](Cc1ccc(O)cc1)C(=O)N[C@H](Cc1c[nH]c2ccccc12)C(=O)N[C@H](CCCN)C(=O)N[C@@H](CCCN)C(=O)NCC(=O)N[C@H](CCCN)C(=O)N[C@@H](Cc1c[nH]c2ccccc12)C(=O)N[C@@H]1C(=O)N[C@@H]([C@@H](C)CC)C(=O)N[C@@H](CC(N)=O)C(=O)NCC(=O)NCC(=O)O[C@@H]1C [Compound 26] (Palmitoyl-[dS][dY][dW][dOrn][Orn]G[dOrn]WTINGG; ester 9-C) | 32 µg/mL | 32 µg/mL | >32 µg/mL | 4 µg/mL | 32 µg/mL | 32 µg/mL | 46.1%
